Literature values in US11596693B2, “Antibody-drug conjugates and uses thereof” (priority 2019, dated 2023).
Square brackets hold non-standard residues; d marks the D form. Peptide text beside a SMILES is read from it. * marks the point of attachment. Dolaproine = CO[C@@H]([C@@H]1CCCN1)[C@@H](C)C(=O)O; Dil = CC[C@H](C)[C@H](NC)[C@@H](CC(=O)O)OC; X1 = C[C@@H](N*)[C@@H](O)c1ccccc1; NMeV = CN[C@H](C(=O)O)C(C)C

Legend:
many cells = conditions: for many cells
[1] = system: human-derived cancer cell lines; conditions: read-out: median inhibitory concentration

Row | IC50 [1] | SMILES | IC50 (many cells)
1 |  | COc1cc2cc(c1Cl)N(C)C(=O)CC(OC(=O)[C@H](C)N(C)C(=O)CCS)C1(C)OC1C(C)C1CC(O)(NC(=O)O1)C(OC)/C=C/C=C(\C)C2 (stereo partly shown) [DM1] | ~0.01 nM
2 |  | COc1cc2cc(c1Cl)N(C)C(=O)CC(OC(=O)[C@H](C)N(C)C(=O)CCC(C)(C)S)C1(C)OC1C(C)C1CC(O)(NC(=O)O1)C(OC)/C=C/C=C(\C)C2 (stereo partly shown) [DM4] | ~0.001 nM
3 |  | CC[C@H](C)[C@@H]([C@@H](CC(=O)N1CCC[C@H]1[C@H](OC)[C@@H](C)C(=O)N[C@H](C)[C@@H](O)c1ccccc1)OC)N(C)C(=O)[C@@H](NC(=O)[C@@H](NC)C(C)C)C(C)C [MMAE, Monomethyl auristatin E] (H-[NMeV]V[Dil][Dolaproine]-X1) | 0.01 to 1 nM
4 | 100 to 200 nM | COc1cccc2c1C(=O)c1c(O)c3c(c(O)c1C2=O)C[C@@](O)(C(=O)CO)C[C@@H]3O[C@H]1C[C@H](N)[C@H](O)[C@H](C)O1 [doxorubicins, Doxorubicin] | 
